In ChEMBL document CHEMBL1201862, “PubChem BioAssay data set” (2004):
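Method: 48-hour compound exposure of cells in 96-well plates, five concentrations, linear interpolation of endpoints. The concentration for 50% growth inhibition is given as GI50.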 Calls of active or inactive are those of the source. No stated cut-off is given here; in the data, active = GI50 up to about 1.1 µM and inactive = higher.

Tests used:
Experiment in all cases: inhibition of tumour cell growth, NCI panel, 48 h
A498 = test system: A498
SNB-75 = test system: SNB-75
A549 = test system: A549
SF-539 = test system: SF-539
DU-145 = test system: DU-145
SW-620 = test system: SW-620
SF-295 = test system: SF-295
MDA-MB-435 = test system: MDA-MB-435
CCRF-CEM = test system: CCRF-CEM
PC-3 = test system: PC-3
OVCAR-4 = test system: OVCAR-4
NCI-H23 = test system: NCI-H23
IGROV-1 = test system: IGROV-1
UACC-62 = test system: UACC-62
SN12C = test system: SN12C
SR = test system: SR
NCI-H460 = test system: NCI-H460
Malme-3M = test system: Malme-3M
SK-MEL-28 = test system: SK-MEL-28
HOP-92 = test system: HOP-92

| Structure (SMILES) | GI50 (A498) | GI50 (SNB-75) | GI50 (A549) | GI50 (SF-539) | GI50 (DU-145) | GI50 (SW-620) | GI50 (SF-295) | GI50 (MDA-MB-435) | GI50 (CCRF-CEM) | GI50 (PC-3) | GI50 (OVCAR-4) | GI50 (NCI-H23) | GI50 (IGROV-1) | GI50 (UACC-62) | GI50 (SN12C) | GI50 (SR) | GI50 (NCI-H460) | GI50 (Malme-3M) | GI50 (SK-MEL-28) | GI50 (HOP-92) |
| --- | --- | --- | --- | --- | --- | --- | --- | --- | --- | --- | --- | --- | --- | --- | --- | --- | --- | --- | --- | --- |
| CN(Cc1cnc2nc(N)nc(N)c2n1)c1ccc(C(=O)NC(CCC(=O)O)C(=O)O)c2ccccc12 (stereo not drawn) | 0.0526 µM (active) | 0.0693 µM (active) | 0.00286 µM (active) | 0.00577 µM (active) | 0.00938 µM (active) | 0.00137 µM (active) | 0.00604 µM (active) | 0.00247 µM (active) | 0.000843 µM (active) | 0.000479 µM (active) | < 0.1 µM (active) | 0.00773 µM (active) | 0.0137 µM (active) | 0.00148 µM (active) | 0.00697 µM (active) | 0.0025 µM (active) | 0.0011 µM (active) | 0.0356 µM (active) | 0.0805 µM (active) |  |
| COCCOC(=O)c1c(C)[n+]([O-])c2cc(Cl)c(Cl)cc2[n+]1[O-] | 20.3 µM (inactive) |  | 12.7 µM (inactive) | 22.6 µM (inactive) | 11.5 µM (inactive) | 20 µM (inactive) | 17.1 µM (inactive) | 17.5 µM (inactive) | 9.29 µM (inactive) | 21.3 µM (inactive) | 14.4 µM (inactive) | 19.8 µM (inactive) | 3.85 µM (inactive) | 14.8 µM (inactive) | 20 µM (inactive) | 4.76 µM (inactive) | 7.85 µM (inactive) | 18.5 µM (inactive) | 28.4 µM (inactive) | 5.21 µM (inactive) |
| Nc1nc(Cl)cc(NCC2(CO)CCC2)n1 |  | > 100 µM (inactive) | > 100 µM (inactive) | > 100 µM (inactive) | > 100 µM (inactive) | > 100 µM (inactive) | > 100 µM (inactive) | > 100 µM (inactive) | > 100 µM (inactive) | > 100 µM (inactive) | > 100 µM (inactive) | > 100 µM (inactive) | > 100 µM (inactive) | 99.3 µM (inactive) | > 100 µM (inactive) | > 100 µM (inactive) | > 100 µM (inactive) | > 100 µM (inactive) | > 100 µM (inactive) | > 100 µM (inactive) |
| O=C1c2cc3ccccc3cc2C2(c3ccc(Cl)cc3)NCCN12 (stereo not drawn) | 77.3 µM (inactive) | 27.8 µM (inactive) | 28.4 µM (inactive) | 23 µM (inactive) | 40.6 µM (inactive) | 50.4 µM (inactive) | 25.5 µM (inactive) | 33 µM (inactive) | 33 µM (inactive) | 31.1 µM (inactive) | 52.5 µM (inactive) | 22.1 µM (inactive) | 27.4 µM (inactive) | 19.2 µM (inactive) | 49.5 µM (inactive) | 29 µM (inactive) | 29.6 µM (inactive) |  | 39.6 µM (inactive) | 34.4 µM (inactive) |
| Cc1ccc(/N=N/C(=O)NNc2ccc(C)c([N+](=O)[O-])c2)cc1[N+](=O)[O-] | 14.7 µM (inactive) | 19.6 µM (inactive) | 28.8 µM (inactive) |  | 25.1 µM (inactive) | 41 µM (inactive) |  | 36.5 µM (inactive) | 19.2 µM (inactive) | 18.7 µM (inactive) | 19.4 µM (inactive) | 30.2 µM (inactive) | 17.7 µM (inactive) | 13.9 µM (inactive) | 31.4 µM (inactive) | 18.9 µM (inactive) | 28.6 µM (inactive) | 30.8 µM (inactive) | 26.1 µM (inactive) |  |
| O=C(O)c1nc2cc(C(F)(F)F)ccc2[nH]c1=O | > 100 µM (inactive) |  | > 100 µM (inactive) | > 100 µM (inactive) | > 100 µM (inactive) | > 100 µM (inactive) | > 100 µM (inactive) | > 100 µM (inactive) | > 100 µM (inactive) | > 100 µM (inactive) | > 100 µM (inactive) | > 100 µM (inactive) | > 100 µM (inactive) | > 100 µM (inactive) | > 100 µM (inactive) | > 100 µM (inactive) | > 100 µM (inactive) | > 100 µM (inactive) | > 100 µM (inactive) | > 100 µM (inactive) |
| CCOC(=O)c1sc(=S)n(-c2ccc(Cl)cc2)c1-n1cc(-c2ccccc2)c(C#N)c1N | 23.1 µM (inactive) | 16 µM (inactive) | 18.8 µM (inactive) | 19.8 µM (inactive) | 6.81 µM (inactive) | 53 µM (inactive) | 13.3 µM (inactive) | 41 µM (inactive) | 31.8 µM (inactive) | 11.8 µM (inactive) | 8.85 µM (inactive) | 21.8 µM (inactive) | 15.3 µM (inactive) | 24.8 µM (inactive) | 18.6 µM (inactive) | 17.4 µM (inactive) | 22.3 µM (inactive) |  | 38.2 µM (inactive) | 15.4 µM (inactive) |
| CC1C(OS(=O)(=O)c2ccc3nc(S)sc3c2)CC2C3(C)CCC2(C(C)C(=O)O)C(O)C13 (stereo not drawn) | 54.7 µM (inactive) |  | 21.7 µM (inactive) | 17.6 µM (inactive) | 15.7 µM (inactive) |  | 28 µM (inactive) | 17.2 µM (inactive) | 3.85 µM (inactive) | 27.4 µM (inactive) | 18.6 µM (inactive) | 17.9 µM (inactive) | 11.4 µM (inactive) | 21.9 µM (inactive) | 28 µM (inactive) | 11.9 µM (inactive) | 46.9 µM (inactive) | 27.2 µM (inactive) | 26.8 µM (inactive) | 26.6 µM (inactive) |
| N#Cc1c(N)nc(Sc2ccccc2N)c(C#N)c1-c1ccc(Cl)cc1 | 2.65 µM (inactive) |  | 9.4 µM (inactive) | 11.8 µM (inactive) | 12.7 µM (inactive) | > 33.3 µM (inactive) | 6.65 µM (inactive) | 11.7 µM (inactive) | > 27.2 µM (inactive) | 3.71 µM (inactive) | 17.8 µM (inactive) | 21.4 µM (inactive) | 5.52 µM (inactive) | 4.06 µM (inactive) | 13.8 µM (inactive) | 1 µM (active) | 9.46 µM (inactive) | 6.61 µM (inactive) | 33.6 µM (inactive) | 15.8 µM (inactive) |
| Cc1ccc(C)n1-n1c(-c2ccccc2)n[nH]c1=O | > 100 µM (inactive) | > 100 µM (inactive) | > 100 µM (inactive) |  | > 100 µM (inactive) | > 100 µM (inactive) | > 100 µM (inactive) | 21.2 µM (inactive) | > 100 µM (inactive) | > 100 µM (inactive) | > 100 µM (inactive) |  | > 100 µM (inactive) | > 100 µM (inactive) | > 100 µM (inactive) | 51.9 µM (inactive) | > 100 µM (inactive) | > 100 µM (inactive) | > 100 µM (inactive) |  |
| CCOC(=O)/C(C(=S)Nc1ccccc1)=C(/N)N1CCCC1 | > 100 µM (inactive) |  | > 100 µM (inactive) | > 100 µM (inactive) | > 100 µM (inactive) | 48.9 µM (inactive) | > 100 µM (inactive) | 37.9 µM (inactive) | 46.1 µM (inactive) | 38.9 µM (inactive) | > 100 µM (inactive) | > 100 µM (inactive) | > 100 µM (inactive) | > 100 µM (inactive) | > 100 µM (inactive) | > 100 µM (inactive) | 62.2 µM (inactive) | > 100 µM (inactive) | > 100 µM (inactive) | 2.1 µM (inactive) |
| O=c1oc2c(ccc3ccccc32)cc1C1=CSC2=NCCN12 |  | > 100 µM (inactive) | 27.1 µM (inactive) | 69.7 µM (inactive) | 26.5 µM (inactive) | 29.7 µM (inactive) | 33 µM (inactive) | 53.3 µM (inactive) | 30.5 µM (inactive) | 71.4 µM (inactive) | 44.5 µM (inactive) | 53.8 µM (inactive) | 32.7 µM (inactive) | > 100 µM (inactive) | 42.4 µM (inactive) | 34.4 µM (inactive) | 36.7 µM (inactive) | 58.6 µM (inactive) | 35.2 µM (inactive) | 24.4 µM (inactive) |
| CC(C)(C)C1CCC2c3c([nH]c4ccccc34)C3C(=O)N(c4cc(Cl)ccc4Cl)C(=O)C3C2C1 (stereo not drawn) | > 100 µM (inactive) |  | > 100 µM (inactive) | > 100 µM (inactive) | > 100 µM (inactive) | 5.85 µM (inactive) | > 100 µM (inactive) | > 100 µM (inactive) | > 100 µM (inactive) | > 100 µM (inactive) |  | > 100 µM (inactive) | > 100 µM (inactive) | > 100 µM (inactive) | > 100 µM (inactive) | > 10 µM (inactive) | > 100 µM (inactive) | > 100 µM (inactive) |  | 65.8 µM (inactive) |
| O=[N+]([O-])c1cccc(-c2ncc3c(n2)-c2ccccc2C3)c1 |  | 23.1 µM (inactive) | > 100 µM (inactive) | > 100 µM (inactive) | > 100 µM (inactive) | > 100 µM (inactive) | 54.3 µM (inactive) | > 100 µM (inactive) | > 100 µM (inactive) | > 100 µM (inactive) | > 100 µM (inactive) | > 100 µM (inactive) | 53.2 µM (inactive) | > 100 µM (inactive) | > 100 µM (inactive) | > 100 µM (inactive) | > 100 µM (inactive) | > 100 µM (inactive) | > 100 µM (inactive) | > 100 µM (inactive) |
| C/C(=C\C(=N\NC(=N)N)c1ccccc1)c1ccccc1 |  | 4.28 µM (inactive) | 0.577 µM (active) | 0.432 µM (active) | 0.406 µM (active) | 0.318 µM (active) | 0.409 µM (active) | 1.24 µM (inactive) | 0.208 µM (active) | 0.313 µM (active) | 0.321 µM (active) | 0.354 µM (active) | 0.432 µM (active) | 1.15 µM (inactive) | 0.454 µM (active) | 2.18 µM (inactive) | 2.25 µM (inactive) | 1.16 µM (inactive) | 2.58 µM (inactive) | 0.716 µM (active) |
